# Test results from ChEMBL document CHEMBL5465560, “Selectivity Literature for EUbOPEN Chemogenomic Library” (2024).
# Columns and labels:
# [1] = target: Cyclin-dependent kinase 17 (Homo sapiens) (UniProt Q00537); assay: Selectivity interaction (Ambit KINOMEscan and KiNATiv profiling in Jurkat cells) EUB0000090b CDK17; format: cell-based; details: at 1 µM
# [2] = target: Calcium/calmodulin-dependent protein kinase kinase 2 (Homo sapiens) (UniProt Q96RR4); assay: Selectivity interaction (Ambit KINOMEscan and KiNATiv profiling in Jurkat cells) EUB0000090b CAMKK2; format: cell-based; details: at 1 µM
# Sequence of Calcium/calmodulin-dependent protein kinase kinase 2 (Homo sapiens) (Q96RR4 2-588 limits assumed): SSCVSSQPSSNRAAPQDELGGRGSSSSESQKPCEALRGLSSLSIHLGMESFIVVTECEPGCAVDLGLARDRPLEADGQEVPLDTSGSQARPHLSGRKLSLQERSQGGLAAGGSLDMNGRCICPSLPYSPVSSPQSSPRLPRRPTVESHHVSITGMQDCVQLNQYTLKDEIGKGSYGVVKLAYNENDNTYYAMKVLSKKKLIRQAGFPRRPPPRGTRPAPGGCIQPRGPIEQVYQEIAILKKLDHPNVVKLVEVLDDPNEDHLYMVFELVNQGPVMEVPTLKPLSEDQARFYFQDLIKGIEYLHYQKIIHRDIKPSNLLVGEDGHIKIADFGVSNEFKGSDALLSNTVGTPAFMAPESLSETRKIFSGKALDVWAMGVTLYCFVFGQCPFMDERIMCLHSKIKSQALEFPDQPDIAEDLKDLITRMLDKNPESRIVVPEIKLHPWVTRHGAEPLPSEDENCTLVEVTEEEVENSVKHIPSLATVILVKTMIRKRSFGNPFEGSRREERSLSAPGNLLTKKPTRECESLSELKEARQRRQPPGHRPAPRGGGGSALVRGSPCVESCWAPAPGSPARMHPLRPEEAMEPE
# [3] = Selectivity interaction (ActivX KiNativ screen (kinase selectivity in THP-1 cell lysates)) EUB0000639a STLK6; details: Selectivity number of off-targets 0; Selectivity number of targets 283; Source Knowledge https://pubmed.ncbi.nlm.nih.gov/28498658/; at 0.04 µM
# [4] = target: Cyclin-dependent kinase 18 (Homo sapiens) (UniProt Q07002); assay: Selectivity interaction (KinomeScan (DiscoverX)) EUB0000695a CDK18; details: at 100 nM
# Sequence of Cyclin-dependent kinase 18 (Homo sapiens) (Q07002 whole entry): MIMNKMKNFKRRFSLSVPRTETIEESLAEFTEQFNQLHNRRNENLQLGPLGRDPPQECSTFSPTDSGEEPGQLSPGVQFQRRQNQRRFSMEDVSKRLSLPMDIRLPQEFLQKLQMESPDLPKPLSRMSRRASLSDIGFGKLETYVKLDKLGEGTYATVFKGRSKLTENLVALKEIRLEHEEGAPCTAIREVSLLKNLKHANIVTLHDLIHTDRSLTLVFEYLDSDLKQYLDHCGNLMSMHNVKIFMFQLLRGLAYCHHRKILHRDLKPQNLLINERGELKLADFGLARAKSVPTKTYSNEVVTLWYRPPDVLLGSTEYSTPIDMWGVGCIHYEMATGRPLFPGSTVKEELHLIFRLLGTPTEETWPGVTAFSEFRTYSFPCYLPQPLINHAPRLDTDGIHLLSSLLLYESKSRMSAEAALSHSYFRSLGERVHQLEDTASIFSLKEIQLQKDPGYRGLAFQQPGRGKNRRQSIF
# [5] = target: T1, Serine/threonine-protein kinase Nek5 (Homo sapiens) (UniProt Q6P3R8); details: at 10 µM
# T1 sequence (whole entry): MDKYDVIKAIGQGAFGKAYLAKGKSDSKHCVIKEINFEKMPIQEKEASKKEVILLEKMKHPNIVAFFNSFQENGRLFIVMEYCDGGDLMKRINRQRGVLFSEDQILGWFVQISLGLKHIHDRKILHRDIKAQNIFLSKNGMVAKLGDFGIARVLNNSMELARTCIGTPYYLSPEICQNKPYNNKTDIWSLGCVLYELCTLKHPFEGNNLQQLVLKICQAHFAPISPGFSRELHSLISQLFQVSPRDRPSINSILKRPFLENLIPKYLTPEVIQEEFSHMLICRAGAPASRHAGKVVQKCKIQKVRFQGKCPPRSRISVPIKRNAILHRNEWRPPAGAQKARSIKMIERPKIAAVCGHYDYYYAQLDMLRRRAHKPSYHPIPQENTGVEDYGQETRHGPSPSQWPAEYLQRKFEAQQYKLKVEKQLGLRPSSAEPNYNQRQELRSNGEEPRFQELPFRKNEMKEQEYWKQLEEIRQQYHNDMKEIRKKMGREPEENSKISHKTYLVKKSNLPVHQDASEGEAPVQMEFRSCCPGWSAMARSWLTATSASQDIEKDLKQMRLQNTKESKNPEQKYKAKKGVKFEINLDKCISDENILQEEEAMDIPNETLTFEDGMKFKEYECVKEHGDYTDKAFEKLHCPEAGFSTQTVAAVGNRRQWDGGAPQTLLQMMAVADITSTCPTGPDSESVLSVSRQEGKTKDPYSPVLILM
# [6] = target: Casein kinase II subunit alpha' (Homo sapiens) (UniProt P19784); assay: Selectivity interaction (KinomeScan (DiscoverX)) EUB0000229b CSNK2A2; details: at 10 µM
# Sequence of Casein kinase II subunit alpha' (Homo sapiens) (P19784 whole entry, looked up): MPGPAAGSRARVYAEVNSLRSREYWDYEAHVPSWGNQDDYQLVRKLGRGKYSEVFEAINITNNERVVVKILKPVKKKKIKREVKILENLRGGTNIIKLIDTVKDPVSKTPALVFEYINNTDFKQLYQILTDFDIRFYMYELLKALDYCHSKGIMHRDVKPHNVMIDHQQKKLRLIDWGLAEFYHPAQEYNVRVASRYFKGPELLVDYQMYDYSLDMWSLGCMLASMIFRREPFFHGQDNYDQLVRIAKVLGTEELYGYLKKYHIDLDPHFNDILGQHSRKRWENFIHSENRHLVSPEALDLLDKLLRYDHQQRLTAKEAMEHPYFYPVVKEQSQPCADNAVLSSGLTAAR
# [7] = target: Death-associated protein kinase 1 (Homo sapiens, UniProt P53355); assay: Selectivity interaction (KinomeScan (DiscoverX)) EUB0001079a DAPK1; details: at 1 µM
# [8] = target: Vascular endothelial growth factor receptor 2 (Homo sapiens, UniProt P35968); assay: Selectivity interaction (KinomeScan (DiscoverX)) EUB0001079a KDR; details: at 1 µM
# Sequence of Vascular endothelial growth factor receptor 2 (P35968 whole entry): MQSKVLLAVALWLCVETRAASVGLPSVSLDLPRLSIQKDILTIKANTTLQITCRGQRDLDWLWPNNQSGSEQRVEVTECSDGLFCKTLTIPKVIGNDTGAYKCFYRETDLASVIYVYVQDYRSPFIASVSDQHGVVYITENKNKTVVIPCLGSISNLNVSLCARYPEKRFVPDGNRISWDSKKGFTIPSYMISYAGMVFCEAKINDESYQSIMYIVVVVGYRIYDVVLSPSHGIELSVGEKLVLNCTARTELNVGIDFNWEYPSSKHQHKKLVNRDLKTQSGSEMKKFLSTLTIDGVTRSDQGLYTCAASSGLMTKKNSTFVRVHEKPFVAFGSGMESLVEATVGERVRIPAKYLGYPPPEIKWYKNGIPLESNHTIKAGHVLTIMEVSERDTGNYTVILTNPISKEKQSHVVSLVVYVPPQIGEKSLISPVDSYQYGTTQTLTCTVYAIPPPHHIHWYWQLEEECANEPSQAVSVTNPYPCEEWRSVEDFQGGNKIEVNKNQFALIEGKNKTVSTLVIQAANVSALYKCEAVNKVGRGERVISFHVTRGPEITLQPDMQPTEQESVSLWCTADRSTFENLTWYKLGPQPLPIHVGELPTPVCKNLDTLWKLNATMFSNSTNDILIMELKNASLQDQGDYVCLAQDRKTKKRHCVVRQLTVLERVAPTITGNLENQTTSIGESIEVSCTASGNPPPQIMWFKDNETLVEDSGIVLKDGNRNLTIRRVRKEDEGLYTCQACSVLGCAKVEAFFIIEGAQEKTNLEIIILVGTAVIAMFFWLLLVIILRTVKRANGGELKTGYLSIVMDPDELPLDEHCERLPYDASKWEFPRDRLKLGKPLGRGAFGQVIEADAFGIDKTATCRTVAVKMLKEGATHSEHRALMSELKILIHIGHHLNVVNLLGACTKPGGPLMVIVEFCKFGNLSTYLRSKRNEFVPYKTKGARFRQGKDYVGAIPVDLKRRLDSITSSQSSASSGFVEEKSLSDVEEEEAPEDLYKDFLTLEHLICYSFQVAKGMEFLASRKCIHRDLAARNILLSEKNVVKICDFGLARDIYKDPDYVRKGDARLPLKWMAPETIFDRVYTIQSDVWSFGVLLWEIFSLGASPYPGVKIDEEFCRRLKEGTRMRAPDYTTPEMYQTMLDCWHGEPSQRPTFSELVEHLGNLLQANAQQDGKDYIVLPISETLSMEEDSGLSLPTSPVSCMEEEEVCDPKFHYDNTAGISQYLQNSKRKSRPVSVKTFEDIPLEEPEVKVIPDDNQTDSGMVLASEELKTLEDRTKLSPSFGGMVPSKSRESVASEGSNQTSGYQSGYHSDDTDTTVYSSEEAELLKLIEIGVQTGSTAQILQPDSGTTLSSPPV
# [9] = target: Death-associated protein kinase 2 (Homo sapiens) (UniProt Q9UIK4); assay: Selectivity interaction (KinomeScan (DiscoverX)) EUB0000045b DAPK2
# Sequence of Death-associated protein kinase 2 (Homo sapiens) (Q9UIK4 whole entry, looked up): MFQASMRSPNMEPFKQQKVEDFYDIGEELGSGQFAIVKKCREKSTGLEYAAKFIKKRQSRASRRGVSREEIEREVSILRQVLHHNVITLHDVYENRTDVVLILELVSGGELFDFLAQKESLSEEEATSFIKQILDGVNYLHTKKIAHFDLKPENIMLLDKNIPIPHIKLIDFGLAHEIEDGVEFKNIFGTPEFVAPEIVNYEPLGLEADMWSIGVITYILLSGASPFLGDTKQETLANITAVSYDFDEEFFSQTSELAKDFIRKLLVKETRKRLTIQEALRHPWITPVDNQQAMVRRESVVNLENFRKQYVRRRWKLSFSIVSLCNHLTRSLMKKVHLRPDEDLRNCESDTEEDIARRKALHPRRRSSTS
# [10] = target: Serine/threonine-protein kinase PLK1 (Homo sapiens, UniProt P53350); assay: Selectivity interaction (KinomeScan (DiscoverX)) EUB0000045b PLK1
# Sequence of Serine/threonine-protein kinase PLK1 (P53350 whole entry): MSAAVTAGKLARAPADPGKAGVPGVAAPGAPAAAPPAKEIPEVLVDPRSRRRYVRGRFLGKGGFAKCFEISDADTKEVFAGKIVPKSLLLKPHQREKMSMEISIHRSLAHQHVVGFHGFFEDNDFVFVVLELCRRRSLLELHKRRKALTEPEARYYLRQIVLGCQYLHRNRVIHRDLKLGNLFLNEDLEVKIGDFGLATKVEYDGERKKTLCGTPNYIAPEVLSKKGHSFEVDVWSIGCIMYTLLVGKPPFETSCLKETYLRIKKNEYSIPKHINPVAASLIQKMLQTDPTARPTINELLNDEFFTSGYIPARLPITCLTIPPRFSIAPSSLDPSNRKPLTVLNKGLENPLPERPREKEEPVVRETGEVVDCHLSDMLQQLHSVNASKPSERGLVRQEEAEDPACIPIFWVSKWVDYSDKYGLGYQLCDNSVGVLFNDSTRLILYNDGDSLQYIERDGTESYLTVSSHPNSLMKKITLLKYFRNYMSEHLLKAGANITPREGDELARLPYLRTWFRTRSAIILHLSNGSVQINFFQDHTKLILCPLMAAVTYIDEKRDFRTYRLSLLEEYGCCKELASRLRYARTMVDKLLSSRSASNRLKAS
# [11] = target: T2, Serine/threonine-protein kinase BRSK1 (Homo sapiens) (UniProt Q8TDC3); assay: Selectivity interaction (KinomeScan (DiscoverX)) EUB0000655a BRSK1; details: at 10 µM
# T2 sequence (whole entry): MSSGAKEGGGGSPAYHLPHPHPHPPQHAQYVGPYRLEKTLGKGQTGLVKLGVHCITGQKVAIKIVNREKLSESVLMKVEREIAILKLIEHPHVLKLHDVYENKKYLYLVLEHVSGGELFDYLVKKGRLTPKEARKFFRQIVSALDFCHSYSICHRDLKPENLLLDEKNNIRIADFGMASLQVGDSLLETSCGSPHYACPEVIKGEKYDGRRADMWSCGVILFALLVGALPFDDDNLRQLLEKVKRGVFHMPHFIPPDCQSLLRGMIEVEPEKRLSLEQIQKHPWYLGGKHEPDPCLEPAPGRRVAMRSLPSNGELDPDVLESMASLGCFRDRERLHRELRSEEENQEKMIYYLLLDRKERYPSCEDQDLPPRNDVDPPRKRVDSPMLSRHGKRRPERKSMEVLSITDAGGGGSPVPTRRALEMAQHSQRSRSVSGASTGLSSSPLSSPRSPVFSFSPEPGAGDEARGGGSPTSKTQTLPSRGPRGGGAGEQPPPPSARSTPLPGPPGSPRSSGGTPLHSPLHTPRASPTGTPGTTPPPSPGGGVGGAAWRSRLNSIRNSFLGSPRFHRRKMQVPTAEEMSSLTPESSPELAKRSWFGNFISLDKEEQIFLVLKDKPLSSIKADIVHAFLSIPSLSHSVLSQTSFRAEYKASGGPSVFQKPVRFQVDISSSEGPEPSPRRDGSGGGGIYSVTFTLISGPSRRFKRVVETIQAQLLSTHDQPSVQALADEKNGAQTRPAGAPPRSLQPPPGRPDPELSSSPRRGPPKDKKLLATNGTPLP
# [12] = target: Serine/threonine-protein kinase Chk2 (Homo sapiens) (UniProt O96017); assay: Selectivity interaction (SelectScreen profiling (Invitrogen)) EUB0000607a CHEK2; details: at 2 µM
# Sequence of Serine/threonine-protein kinase Chk2 (Homo sapiens) (O96017 whole entry): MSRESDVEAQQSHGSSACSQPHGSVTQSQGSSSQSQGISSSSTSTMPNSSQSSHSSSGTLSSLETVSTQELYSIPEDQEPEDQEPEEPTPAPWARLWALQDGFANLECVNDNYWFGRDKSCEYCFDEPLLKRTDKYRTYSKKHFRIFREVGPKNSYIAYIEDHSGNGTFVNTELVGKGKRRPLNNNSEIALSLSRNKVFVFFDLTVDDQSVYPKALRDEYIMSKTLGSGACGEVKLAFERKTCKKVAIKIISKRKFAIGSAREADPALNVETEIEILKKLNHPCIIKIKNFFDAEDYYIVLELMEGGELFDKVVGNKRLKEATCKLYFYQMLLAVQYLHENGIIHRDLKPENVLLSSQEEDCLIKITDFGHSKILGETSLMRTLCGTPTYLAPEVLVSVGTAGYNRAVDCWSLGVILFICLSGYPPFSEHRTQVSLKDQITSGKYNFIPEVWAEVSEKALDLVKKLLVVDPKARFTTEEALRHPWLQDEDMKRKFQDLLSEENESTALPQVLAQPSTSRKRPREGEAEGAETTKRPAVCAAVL
# Sequence of Cyclin-dependent kinase 17 (Homo sapiens) (Q00537 whole entry, looked up): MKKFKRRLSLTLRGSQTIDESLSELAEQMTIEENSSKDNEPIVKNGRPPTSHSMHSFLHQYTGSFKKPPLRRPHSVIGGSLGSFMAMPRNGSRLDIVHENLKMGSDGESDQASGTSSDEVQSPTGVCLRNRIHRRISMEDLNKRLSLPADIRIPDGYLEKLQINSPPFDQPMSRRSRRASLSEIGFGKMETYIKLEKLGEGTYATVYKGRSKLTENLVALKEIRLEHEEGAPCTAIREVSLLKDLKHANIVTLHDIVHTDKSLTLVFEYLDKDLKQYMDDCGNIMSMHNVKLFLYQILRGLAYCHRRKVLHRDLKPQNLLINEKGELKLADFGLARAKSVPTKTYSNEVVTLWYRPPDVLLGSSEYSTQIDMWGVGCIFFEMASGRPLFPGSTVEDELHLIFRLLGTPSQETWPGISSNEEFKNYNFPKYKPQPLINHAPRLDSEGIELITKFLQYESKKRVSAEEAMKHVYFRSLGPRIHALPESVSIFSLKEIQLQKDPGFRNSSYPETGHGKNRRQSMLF
smiles,measurement,setting,value
CN(C)C/C=C/C(=O)Nc1ccc(C(=O)N2CCCC(Nc3ncc(Cl)c(-c4c[nH]c5ccccc45)n3)C2)cc1 (centres undefined),% of control,[1],83%
same,% of control,[2],81%
CC[C@@H]1[C@H](F)C(=O)N[C@@H]1COc1nccc2cc(C(N)=O)c(OC)cc12 [ZIMLOVISERTIB],% of inhibition,[3],16%
Cc1cc(F)c(C(=O)Nc2cccc(-c3nncn3C(C)C)n2)cc1-n1cnc(C2CC2)c1,% of control,[4],91%
CCN(CC)CCCCNc1ncc2cc(-c3cc(OC)cc(OC)c3)c(NC(=O)NC(C)(C)C)nc2n1,% of control,[5],100%
COc1cc(N(C)c2ccnc3ccc(C(F)(F)F)cc23)cc(OC)c1OC,% binding,[6],100%
Nc1cnc(N2CCc3cc(S(=O)(=O)Nc4c(F)cc(Cl)cc4F)cc(N4CCCC4=O)c32)nc1 [TP-020n],% of control,[7],100%
same,% of control,[8],81%
C=CC(=O)Nc1cc(-n2c(=O)ccc3cnc4ccc(-c5ccc(NS(C)(=O)=O)cc5)cc4c32)ccc1C,% of control,[9]; at 1 µM,100%
same,% of control,[9]; at 10 µM,94%
same,% of control,[10]; at 1 µM,100%
same,% of control,[10]; at 10 µM,100%
CN(C)CCOc1ccc(-c2nc(-c3ccncc3)c(-c3ccc4c(c3)CC/C4=N\O)[nH]2)cc1,% of control,[11],76%
CNC(=O)Nc1ccc(-c2nc(N3CC4CCC(C3)O4)c3cnn(C4CCC5(CC4)OCCO5)c3n2)cc1,% of inhibition,[12],3%
